Earlier results, collected in patent US7276520B2, “Bicyclic piperidine derivatives as melanocortin-4 receptor agonists” (Merck & Co., Inc., priority 2003, dated 2007).

Key:
erectile dysfunction = settings: for duration of effect / onset of action: after an oral dose; for share of men/patients in whom the drug is effective (adequate response): oral
[1] = in vivo, po
[2] = test system: males with psychogenic erectile dysfunction

Molecule | duration of effect (erectile dysfunction) | onset of action (erectile dysfunction) | share of men/patients in whom the drug is effective (adequate response) (erectile dysfunction) | absorption into the systemic circulation [1] | response rate ([2]; injected intramuscularly or subcutaneously, psychogenic erectile dysfunction) | duration of action ([2]; subcutaneous injection) | time to onset of erection ([2]; subcutaneous injection)
Cc1ccc(N(CC2=NCCN2)c2cccc(O)c2)cc1 [phentolamine] | 2 h | 5 to 30 min | 35-40% | – | – | – | –
CCCc1nn(C)c2c(=O)[nH]c(-c3cc(S(=O)(=O)N4CCN(C)CC4)ccc3OCC)nc12 [sildenafil] | about 4 hours | 30 to 60 min | about 70% | – | – | – | –
Ac-Nle-c[Asp-His-DPhe-Arg-Trp-Lys]-NH2 [MT-II] | – | – | – | not absorbed into the systemic circulation | 75% | approximately 2.5 hours | 10 to 20 min
